Measured values taken from ChEMBL document CHEMBL1614629, “Extrapolation of human pharmacokinetic parameters from rat, dog, and monkey data: Molecular properties associated with extrapolative success or failure” (J Pharm Sci, 2005).

Columns and labels:
[1] = Clearance in rat after iv administration; assay type: ADME, organism-based; settings: in vivo
[2] = Volume of distribution at steady state in rat after iv administration; assay type: ADME, organism-based; settings: in vivo
[3] = Clearance in dog after iv administration; assay type: ADME, organism-based, Canis lupus familiaris; settings: in vivo
[4] = Volume of distribution at steady state in dog after iv administration; assay type: ADME, organism-based, Canis lupus familiaris; settings: in vivo, read-out: Vdss
[5] = Clearance in monkey after iv administration; assay type: ADME, organism-based; settings: macaca, in vivo
[6] = Volume of distribution at steady state in monkey after iv administration; assay type: ADME, organism-based; settings: macaca, in vivo, read-out: Vdss
[7] = Clearance in human after iv administration; assay type: ADME, organism-based; settings: in vivo
[8] = Volume of distribution at steady state in human after iv administration; assay type: ADME, organism-based; settings: in vivo; for Vd: read-out: Vdss

| SMILES | clearance [1] [mL/min/kg] | Vdss [2] [L/kg] | clearance [3] [mL/min/kg] | Vd [4] [L/kg] | clearance [5] [mL/min/kg] | Vd [6] [L/kg] | clearance [7] [mL/min/kg] | Vd [8] [L/kg] | Vdss [8] [L/kg] |
| --- | --- | --- | --- | --- | --- | --- | --- | --- | --- |
| O=c1ccc2ccccc2o1 [COUMARIN] | 20 | 1.3 | 22 | 6.5 | 34 | 4.5 | 17 | 2.2 |  |
| O=[N+]([O-])O[C@H]1CO[C@H]2[C@@H]1OC[C@H]2O[N+](=O)[O-] [ISOSORBIDE DINITRATE] | 118 | 4.9 | 180 | 3 | 59 | 1.7 | 3.6 |  | 0.05 |
| C[C@@H](O)[C@H]1C(=O)N2C(C(=O)O)=C(S[C@@H]3CN[C@H](C(=O)N(C)C)C3)[C@H](C)[C@H]12 [MEROPENEM] | 47 | 0.3 | 4 | 0.25 | 7 | 0.3 | 4 | 0.3 |  |
| CC[C@H]1OC(=O)[C@H](C)[C@@H](O[C@H]2C[C@@](C)(OC)[C@@H](O)[C@H](C)O2)[C@H](C)[C@@H](O[C@@H]2O[C@H](C)C[C@H](N(C)C)[C@H]2O)[C@](C)(O)C[C@@H](C)C(=O)[C@H](C)[C@@H](O)[C@]1(C)O [ERYTHROMYCIN] | 73 | 9.3 | 21 | 2.7 | 14 | 0.93 | 7 | 0.89 |  |
| Cc1c(C)c2c(c(C)c1O)CCC(C)(COc1ccc(CC3SC(=O)NC3=O)cc1)O2 (configuration not stated) [TROGLITAZONE] | 22 | 1 | 6.6 | 0.77 | 8.3 | 0.71 | 3.5 | 0.71 |  |
| NCC1(CC(=O)O)CCCCC1 [GABAPENTIN] | 9.5 | 1.2 | 2.3 | 0.16 | 2.6 | 0.68 | 1.8 | 0.82 |  |
| CN(C)C(=O)CCSC(SCCC(=O)O)c1cccc(/C=C/c2ccc3ccc(Cl)cc3n2)c1 (configuration not stated) [MK-571] | 37 | 0.59 | 4 | 0.23 | 1.9 | 0.32 | 0.92 | 0.09 |  |
| CC(C)N(CCC(C(N)=O)(c1ccccc1)c1ccccn1)C(C)C (configuration not stated) [DISOPYRAMIDE] | 34 | 6.2 | 29 | 2.3 | 19 | 2 | 2.4 | 0.78 |  |
| O=C(O)Cc1ccccc1Nc1c(Cl)cccc1Cl [DICLOFENAC] | 9.4 | 0.75 | 1.6 | 0.23 | 8.7 | 0.17 | 4.2 | 0.17 |  |
| CCCCCNC(=O)c1coc([C@H]2[C@@H](Cc3ccccc3CCC(=O)O)[C@@H]3CC[C@H]2O3)n1 [IFETROBAN] | 88 | 2.8 | 65 | 11 | 19 | 5.5 | 6.4 | 4.4 |  |
| O=[N+]([O-])O[C@@H]1CO[C@H]2[C@@H]1OC[C@@H]2O [ISOSORBIDE MONONITRATE] | 2.5 | 0.97 | 6.9 | 0.8 | 11 | 0.5 | 1.7 | 0.6 |  |
| C[C@@H](O)[C@H]1C(=O)N2C(C(=O)O)=C(COC(N)=O)S[C@H]12 | 16 | 0.05 | 7.7 | 0.23 | 4.7 | 0.15 | 7.2 | 0.25 |  |
| COc1cccc2c1C(=O)c1c(O)c3c(c(O)c1C2=O)C[C@@](O)(C(=O)CO)C[C@@H]3O[C@H]1C[C@H](N)[C@H](O)[C@H](C)O1 [DOXORUBICIN] | 34 | 25 | 17 | 44 | 28 | 24 | 17 | 25 |  |
| Nc1nc(/C(=N/O)C(=O)N[C@@H]2C(=O)N3C(C(=O)O)=C(/C=C4\CCN(CC(F)(F)F)C4=O)CS[C@H]23)cs1 [RO 25-6833] | 0.95 | 0.16 | 2.7 | 0.24 | 0.78 | 0.12 | 0.38 | 0.12 |  |
| CO/N=C(\C(=O)N[C@@H]1C(=O)N2C(C(=O)[O-])=C(C[n+]3ccn4ncccc43)CS[C@H]12)c1nsc(N)n1 [CEFOZOPRAN] | 9.4 | 0.2 | 3 | 0.21 | 1.9 | 0.2 | 1.5 | 0.27 |  |
| NC(=O)c1cc[n+](COC[n+]2ccccc2/C=N/O)cc1 [HI-6] | 9.8 | 0.3 | 3.7 | 0.26 | 8.6 | 0.34 | 3.2 | 0.39 |  |
| CO[C@@]1(NC(=O)C2SC(=C(C(N)=O)C(=O)O)S2)C(=O)N2C(C(=O)O)=C(CSc3nnnn3C)CS[C@@H]21 (some centres not stated) [CEFOTETAN] | 13 | 0.25 | 4 | 0.25 | 1.7 | 0.17 | 0.5 | 0.13 |  |
| CCOC(=O)C1(c2ccccc2)CCN(C)CC1 [MEPERIDINE] | 253 | 24 | 43 | 2.4 | 1 | 5.9 | 17 | 4.4 |  |
| C#C[C@]1(O)CC[C@H]2[C@@H]3CCc4cc(O)ccc4[C@H]3CC[C@@]21C [ETHINYL ESTRADIOL] | 64 | 73 | 25 | 17 | 17 | 6 | 5 | 18 |  |
| Cc1cc(O)c(C(=O)N[C@@H](C(=O)N[C@@H]2C(=O)N3C(C(=O)O)=C(CSc4nnnn4C)CS[C@H]23)c2ccc(O)cc2)cn1 [CEFPIRAMIDE] | 9.5 | 0.26 | 5.1 | 0.45 | 0.52 | 0.1 | 0.28 | 0.11 |  |
| COc1ccc2c(c1)c(CC(=O)O)c(C)n2C(=O)c1ccc(Cl)cc1 [INDOMETHACIN] | 0.43 | 0.1 | 0.002 | 7.4 | 13 | 1.8 | 2 | 0.26 |  |
| O=C(OC1C[C@@H]2CC3C[C@@H](C1)N2CC3O)c1c[nH]c2ccccc12 (some centres not stated) | 94 | 15 | 27 | 9.6 | 77 | 28 | 22 | 11 |  |
| O=c1[nH]cnc2c1ncn2[C@H]1CC[C@@H](CO)O1 [DIDANOSINE] | 66 | 0.99 | 23 | 0.95 | 12 | 0.92 | 14 | 0.81 |  |
| CCC1(C)CC(=O)NC1=O (configuration not stated) [ETHOSUXIMIDE] | 3.1 | 0.68 | 0.42 | 0.59 | 0.33 | 0.82 | 0.15 | 0.63 |  |
